As a reminder, the IC50 is the concentration that gives 50% inhibition. The low end stands for higher potency, the high end for lower potency.

This test addresses T1, DNA polymerase theta (POLQ) (2-894).
T1 construct: 2-894
Put plainly: ATPase Assay. As for the experimental part: POLθ-mediated ATP hydrolysis was measured using the ADP-Glo Kinase Assay (Promega Corporation, Madison, WI). Reactions were performed in white 384-well small-volume microplates (Greiner Bio-One, Frickenhausen, Germany) using a total volume of 15 μL. The ATPase reaction consisted of 1 nM biotinylated Avi-POLθ[2-894], 5 nM of a 50 nucleotide poly-thymine repeat single-stranded DNA (PolyT(50) ssDNA), and 100 μM ATP in 5 μL of assay buffer (50 mM Tris, pH 7.5, 80 mM KCl, 10 MgCl2, 1 mM DTT, 5% glycerol, 0.01% BSA, 0.01% Tween-20). Inhibition of POLΘATPase activity was determined by preparing 11-point serial dilutions of the test compounds in 100% DMSO, then transferring 30 nL of the compounds into the ATPase reaction using an Echo acoustic liquid handler (Beckman Coulter, Brea, CA). DMSO-treated wells containing either all of the reaction components (1 nM biotinylated Avi-POLθ[2-894], 5 nM PolyT(50) ssDNA, 100 μM ATP) or with assay buffer substituted for the biotinylated Avi-POLθ[2-894](0 nM biotinylated Avi-POLθ[2-894], 5 nM PolyT(50) ssDNA, 100 μM ATP) were used to define the maximum and minimum response in the assay. Following a one-hour incubation at ambient temperature, 5 μL of ADP-Glo Reagent was added to the ATPase reaction, and this mixture was allowed to incubate at ambient temperature for an additional hour. Lastly, 5 μL of Kinase Detection Reagent was added, followed by a third one-hour incubation at ambient temperature. The reagent concentrations listed represent the amounts only in the 5 μL ATPase reaction volume.

In turn, `COc1ccc(C#N)cc1-c1cc(C)ncc1C(=O)Nc1nc2c(s1)CN(C(=O)c1ccc(C(F)F)cc1Cl)C2` [US20250230171, Compound 519] came in with an IC50 of 8 nM. Turning to `COc1cnc(Cl)cc1-c1cc(C)ncc1C(=O)Nc1nc2c(s1)CN(C(=O)c1cnc(OC)c(C(F)F)n1)C2` [US20250230171, Compound 531], 8 nM corresponded to half-maximal inhibition (IC50).

Turning to `COc1cnc(Cl)cc1-c1cc(C)ncc1C(=O)Nc1nc2c(s1)CN(C(=O)c1nn(C)cc1N)C2` [US20250230171, Compound 458], it took 8 nM to reach half-maximal inhibition (IC50). `COc1cnc(Cl)cc1-c1cc(C)ncc1C(=O)Nc1nc2c(s1)CN(C(=O)C1CC3(CC(C#N)C3)C1)C2` (centres undefined) [US20250230171, Compound 532] showed a half-maximal inhibitory concentration (IC50) of 8 nM. In the case of `COc1cnc(Cl)cc1-c1cc(C)ncc1C(=O)Nc1nc2c(s1)CN(C(=O)C1CC13CC3)C2` (racemic) [US20250230171, Compound 535], the concentration for half-maximal inhibition (IC50) is 32.5 nM.

Regarding `COc1cnc(Cl)cc1-c1cc(C)ncc1C(=O)Nc1nc2c(s1)CN(C(=O)c1c(Cl)c(C)nn1C)C2` [US20250230171, Compound 408], the IC50 amounted to 8 nM. For `COc1cnc(Cl)cc1-c1cc(C)ncc1C(=O)Nc1nc2c(s1)CN(C(=O)c1cncc(C(F)F)n1)C2` [US20250230171, Compound 541] the value was 32.5 nM.

`COc1cnc(Cl)cc1-c1cc(C)ncc1C(=O)Nc1nc2c(s1)CN(C(=O)c1nc(C)ccc1Cl)C2` [US20250230171, Compound 498] returned an IC50 of 8 nM. For `COc1cnc(Cl)cc1-c1cc(C)ncc1C(=O)Nc1nc2c(s1)CN(C(=O)c1ncc(C(F)F)cc1OC)C2` [US20250230171, Compound 412] the value was 8 nM; for `COc1cnc(Cl)cc1-c1cc(C)ncc1C(=O)Nc1nc2c(s1)CN(C(=O)c1cncn1C1CC1)C2` [US20250230171, Compound 527], 8 nM; for `COc1cnc(Cl)cc1-c1cc(C)ncc1C(=O)Nc1nc2c(s1)CN(C(=O)c1cnc(C(F)(F)F)nc1C)C2` [US20250230171, Compound 477], 8 nM.

As for `COc1cnc(Cl)cc1-c1cc(C)ncc1C(=O)Nc1nc2c(s1)CN(C(=O)c1cnc(C)n1C)C2` [US20250230171, Compound 546], half-maximal inhibition (IC50) was put at 100 nM.

Regarding `COc1ccc(C#N)cc1-c1cc(C)ncc1C(=O)Nc1nc2c(s1)CN(C(=O)c1ccc(OC(F)F)cc1)C2` [US20250230171, Compound 503], 8 nM corresponded to half-maximal inhibition (IC50).

As to `COc1ccc(C#N)cc1-c1cc(C)ncc1C(=O)Nc1nc2c(s1)CN(C(=O)c1cccc(Cl)c1OC)C2` [US20250230171, Compound 422], the IC50 is 8 nM.

In turn, `COc1cnc(Cl)cc1-c1cc(C)ncc1C(=O)Nc1nc2c(s1)CN(C(=O)c1cccc(C)n1)C2` [US20250230171, Compound 497] returned an IC50 of 8 nM. For `COc1cc(Cl)ccc1C(=O)N1Cc2nc(NC(=O)c3cnc(C)cc3-c3cc(C#N)ccc3OC)sc2C1` [US20250230171, Compound 467], half-maximal inhibition (IC50) was put at 8 nM. In the case of `COc1ccc(C(=O)N2Cc3nc(NC(=O)c4cnc(C)cc4-c4cc(C#N)ccc4OC)sc3C2)c(Cl)c1` [US20250230171, Compound 516], the IC50 is 8 nM.

`COc1cnc(Cl)cc1-c1cc(C)ncc1C(=O)Nc1nc2c(s1)CN(C(=O)c1cccnc1Cl)C2` [US20250230171, Compound 524] registered a half-inhibitory concentration (IC50) of 8 nM. On to `COc1cnc(Cl)cc1-c1cc(C)ncc1C(=O)Nc1nc2c(s1)CN(C(=O)c1cccc3nccn13)C2` [US20250230171, Compound 455], for which the half-maximal inhibitory concentration (IC50) turned out to be 8 nM. Compound `COc1cnc(Cl)cc1-c1cc(C)ncc1C(=O)Nc1nc2c(s1)CN(C(=O)C1CC3(CC(OC(F)F)C3)C1)C2` (centres undefined) [US20250230171, Compound 456] had a half-maximal inhibitory concentration (IC50) of 8 nM. `COc1cnc(Cl)cc1-c1cc(C)ncc1C(=O)Nc1nc2c(s1)CN(C(=O)C1CCCC(OC(F)(F)F)C1)C2` (racemic) [US20250230171, Compound 485]: 8 nM corresponded to half-maximal inhibition (IC50). Take `COc1cnc(Cl)cc1-c1cc(C)ncc1C(=O)Nc1nc2c(s1)CN(C(=O)c1nn(C)cc1F)C2` [US20250230171, Compound 435]: the concentration for half-maximal inhibition (IC50) worked out at 8 nM. In turn, `COc1cnc(Cl)cc1-c1cc(C)ncc1C(=O)Nc1nc2c(s1)CN(C(=O)c1ccc(C(F)F)cc1F)C2` [US20250230171, Compound 382] returned a 50% inhibitory concentration (IC50) of 8 nM.

The compound `COc1ccc(C(=O)N2Cc3nc(NC(=O)c4cnc(C)cc4-c4cc(Cl)ncc4OC)sc3C2)nn1` [US20250230171, Compound 545] returned a concentration for half-maximal inhibition (IC50) of 32.5 nM. For `COc1cnc(Cl)cc1-c1cc(C)ncc1C(=O)Nc1nc2c(s1)CN(C(=O)C1CC3(CC(F)C3)C1)C2` (centres undefined) [US20250230171, Compound 473] the value was 8 nM; for `COc1cnc(Cl)cc1-c1cc(C)ncc1C(=O)Nc1nc2c(s1)CN(C(=O)c1ccc(OC(F)F)nc1)C2` [US20250230171, Compound 32], 8 nM.

`COc1cnc(Cl)cc1-c1cc(C)ncc1C(=O)Nc1nc2c(s1)CN(C(=O)c1c(C#N)cnn1C)C2` [US20250230171, Compound 515] registered a half-inhibitory concentration (IC50) of 8 nM. With `COc1cnc(Cl)cc1-c1cc(C)ncc1C(=O)Nc1nc2c(s1)CN(C(=O)c1ncc(Cl)cc1C(C)(F)F)C2` [US20250230171, Compound 595], inhibition was half-maximal at 8 nM (IC50). With `COc1cnc(Cl)cc1-c1cc(C)ncc1C(=O)Nc1nc2c(s1)CN(C(=O)c1ccnc(C(F)(F)F)n1)C2` [US20250230171, Compound 443], half-maximal inhibition (IC50) was put at 8 nM. For `COc1ncc(C#N)cc1-c1cc(C)ncc1C(=O)Nc1nc2c(s1)CN(C(=O)c1ccc(C(F)F)cn1)C2` [US20250230171, Compound 540] the value was 32.5 nM; for `COc1ncc(Cl)c(C(=O)N2Cc3nc(NC(=O)c4cnc(C)cc4-c4cc(Cl)ncc4OC)sc3C2)n1` [US20250230171, Compound 481], 8 nM. As for `COc1cnc(Cl)cc1-c1cc(C)ncc1C(=O)Nc1nc2c(s1)CN(C(=O)c1cc(Cl)nn1C)C2` [US20250230171, Compound 436], the 50% inhibitory concentration (IC50) amounted to 8 nM. As for `COc1cnc(Cl)cc1-c1cc(C)ncc1C(=O)Nc1nc2c(s1)CN(C(=O)c1nc(C)cn1C)C2` [US20250230171, Compound 543], inhibition was half-maximal at 32.5 nM (IC50). As for `COc1cnc(Cl)cc1-c1cc(C)ncc1C(=O)Nc1nc2c(s1)CN(C(=O)c1cc(Cl)cc(C)n1)C2` [US20250230171, Compound 505], the figure is 8 nM. For `COc1cnc(Cl)cc1-c1cc(C)ncc1C(=O)Nc1nc2c(s1)CN(C(=O)c1ccc(F)c(Cl)n1)C2` [US20250230171, Compound 411] the value was 8 nM; for `COc1cnc(Cl)cc1-c1cc(C)ncc1C(=O)Nc1nc2c(s1)CN(C(=O)c1nc(Cl)ccc1C)C2` [US20250230171, Compound 450], 8 nM. On to `COc1cnc(Cl)cc1-c1cc(C)ncc1C(=O)Nc1nc2c(s1)CN(C(=O)c1ncncc1OC)C2` [US20250230171, Compound 514], for which half-maximal inhibition (IC50) was put at 8 nM. In turn, `COc1cnc(Cl)cc1-c1cc(C)ncc1C(=O)Nc1nc2c(s1)CN(C(=O)c1ncc(C(F)F)cn1)C2` [US20250230171, Compound 400] showed a concentration for half-maximal inhibition (IC50) of 8 nM. As to `COc1ncc(Cl)cc1-c1cc(C)ncc1C(=O)Nc1nc2c(s1)CN(C(=O)c1cccc(C(F)F)n1)C2` [US20250230171, Compound 539], it took 32.5 nM to reach half-maximal inhibition (IC50).

`COc1cnc(Cl)cc1-c1cc(C)ncc1C(=O)Nc1nc2c(s1)CN(C(=O)c1cccn3cncc13)C2` [US20250230171, Compound 462] came in with an IC50 of 8 nM. For `COc1cnc(Cl)cc1-c1cc(C)ncc1C(=O)Nc1nc2c(s1)CN(C(=O)c1ccc(C(F)F)c(Cl)c1)C2` [US20250230171, Compound 381] the value was 8 nM; for `COc1cnc(Cl)cc1-c1cc(C)ncc1C(=O)Nc1nc2c(s1)CN(C(=O)c1ccc(C(F)F)nn1)C2` [US20250230171, Compound 454], 8 nM. As for `COc1cnc(Cl)cc1-c1cc(C)ncc1C(=O)Nc1nc2c(s1)CN(C(=O)c1cnc(C(F)F)cc1C)C2` [US20250230171, Compound 466], the figure is 8 nM; as for `COc1ccc(C#N)cc1-c1cc(C)ncc1C(=O)Nc1nc2c(s1)CN(C(=O)c1cccc(C(F)F)n1)C2` [US20250230171, Compound 538], 32.5 nM.

`COc1cnc(Cl)cc1-c1cc(C)ncc1C(=O)Nc1nc2c(s1)CN(C(=O)c1nccnc1OC)C2` [US20250230171, Compound 437] displayed an IC50 of 8 nM. As for `COc1cnc(Cl)cc1-c1cc(C)ncc1C(=O)Nc1nc2c(s1)CN(C(=O)c1ccc(OC)c3cncn13)C2` [US20250230171, Compound 502], the figure is 8 nM; as for `COc1cnc(Cl)cc1-c1cc(C)ncc1C(=O)Nc1nc2c(s1)CN(C(=O)c1ncc(C(C)(F)F)cc1Cl)C2` [US20250230171, Compound 501], 8 nM; as for `COc1cc2nn(C)cc2cc1-c1cc(C)ncc1C(=O)Nc1nc2c(s1)CN(C(=O)c1cccnc1OC)C2` [US20250230171, Compound 533], 8 nM. As for `COc1ccc(C#N)cc1-c1cc(C)ncc1C(=O)Nc1nc2c(s1)CN(C(=O)c1ccc(C(F)F)cc1)C2` [US20250230171, Compound 438], the figure is 8 nM.

The record behind these values is BindingDB's records for patent US20250230171 (Moma Therapeutics, 2025).
